Each structure is given as a SMILES string. A value given as a limit tells only on which side of the number the result lay.

One experiment concerns human PMN-MDSC. Briefly: Human PMN-MDSC assay (PMN-MDSC/CD8+ T cell/DC coculture, IFNγ HTRF). In kind it is cell-based. The note with it: 10 μM. The source says: CD34+ cells were isolated from fresh human blood from healthy donors, obtained from the Health Services unit of the Healthcare Business of Merck KGaA, Darmstadt, Germany. First, peripheral blood mononuclear cells (PBMC) were isolated via density centrifugation, and then the target cells were isolated via magnetic bead labeling using the EasySep Human CD34 Positive Selection Kit II (Stemcell Technologies #17856). After isolation, the CD34+ cells were cultivated in cultivation medium (StemSpan SFEM II (Stemcell Technologies #09655) + 10% (1×) StemSpan CD34+ Expansion (Stemcell Technologies #02691)) for 10 to 12 days. At that point, the media was exchanged for fresh […] medium (Gibco #31870), supplemented with 10% FCS, 2 mM L-glutamine, 100 U/ml penicillin/streptomycin, 1 mM sodium-pyruvate, 1 mM non-essential amino acids, 50 μM ß-mercaptoethanol, and 100 ng/ml human G-CSF (PeproTech, AF-300-23), and the cells were incubated for 10 days in order to derive human PMN-MDSC.
Monocytes were isolated from fresh human blood from healthy donors, obtained from Health Services unit of the Healthcare Business of Merck KGaA, Darmstadt, Germany. […]
PMN-MDSC and DC were differentiated as described above. […] At that point, the supernatant was transferred and IFNγ was measured using a human INFγ HTRF kit (Cisbio #62[…]) following standard assay protocol provided by the manufacturer. The data was analyzed using Genedata software (GeneData Inc, https://www.genedata.com/) with 0% defined by the DMSO-treated wells and 100% effect defined by the wells without PMN-MDSC. […]
After confirming the physiological and pharmacological suitability of the NUP-MDSC model, we developed a high-throughput screen for the identification of potential MDSC modulators (Fig. 4A and supplemental Fig. S3). […] After 72 h, T cell activity was assessed by recording T cell proliferation and IFN-γ secretion. […] Compounds were declared hits if reversing the suppression effect of NUP-MDSC on T cells with ≥50% in either readout resulting in 392 hit compounds (Fig. 4B). […]
In general terms: TR-FRET usually uses a lanthanide donor and a delayed reading to cut background.

The subject of a further experiment is A594 cells. In words: CellROX-based detection of ROS levels. The note with it: 48 h treatment (compound 2 7.8 μM, N-acetyl-cysteine 300 μM), then 200 μM tert-butyl hydroperoxide 2 h; compared to compound 3 10 μM. In kind it is cell-based. Here is the method:
A594 cells were maintained in Fluorobrite DMEM (Thermo Fisher Scientific) supplemented with GlutaMAX (Thermo Fisher Scientific) and 10% fetal bovine serum (PAN Biotech). Cells were seeded onto a 24-well microplate (Ibidi) and treated with DMSO, 7.8 μM compound 2 (3x EC50), 10 μM compound 3, or 300 μM N-acetyl-cysteine for 48 h. After the treatment, cells were incubated with 200 μM tert-butyl hydroperoxide (Sigma) for 2 h to stimulate ROS production. Then, cells were stained with CellROX deep red (Thermo Fisher Scientific) following the manufacturer’s guidelines. CellROX deep red signal was measured on a Leica DMI 6000 B epifluorescent microscope with a Cy5 filter set. Mean signal intensity per cell was determined from >100 cells per condition from three independent treatments.
For the CellROX assay, three independent treatments were conducted. From each, the mean signal intensity per cell was determined for >100 cells per condition. The statistical significance was calculated by one-way ANOVA followed by a post hoc Tukey’s multiple comparisons test using GraphPad Prism (v.8.3.0).

In the case of `CCOC(=O)c1nnn(-c2nn3nnnc3c3ccccc23)c1C` [compound 2], the “% effect on IFNγ secretion” value in the experiment on human PMN-MDSC (mild effect in 4 of 23 donor combinations) was less than 40%; with human PMN-MDSC (strong effect in 5 of 23 donor combinations) it was more than 40%. For the same molecule, the “activity on IFNγ secretion” value in the experiment with human PMN-MDSC (some donors of 23 donor combinations) was “no activity”. In the experiment with A594 cells, the “CellROX Deep Red fluorescence (amount of ROS in a cell)” value is “decreased significantly”.

(Values after paper PMC10518717, “High-Throughput Screening and Proteomic Characterization of Compounds Targeting Myeloid-Derived Suppressor Cells” (Molecular & Cellular Proteomics : MCP, 2023).)
